Measured values as given in ChEMBL document CHEMBL4359847, “Novel N-aryl nicotinamide derivatives: Taking stock on 3,6-diazabicyclo[3.1.1]heptanes as ligands for neuronal acetylcholine receptors” (Eur J Med Chem, 2019).
Active and inactive are the calls of the source. The rule behind the calls is not given here.

Assays:
[1] = target: T1, Neuronal acetylcholine receptor; alpha4/beta2 (Rattus norvegicus, UniProt P09483+P12390); assay: Displacement of [3H]epibatidine from alpha4beta2 nAChR in rat cerebral cortex membrane; format: cell membranes
T1 sequence (P09483 whole entry): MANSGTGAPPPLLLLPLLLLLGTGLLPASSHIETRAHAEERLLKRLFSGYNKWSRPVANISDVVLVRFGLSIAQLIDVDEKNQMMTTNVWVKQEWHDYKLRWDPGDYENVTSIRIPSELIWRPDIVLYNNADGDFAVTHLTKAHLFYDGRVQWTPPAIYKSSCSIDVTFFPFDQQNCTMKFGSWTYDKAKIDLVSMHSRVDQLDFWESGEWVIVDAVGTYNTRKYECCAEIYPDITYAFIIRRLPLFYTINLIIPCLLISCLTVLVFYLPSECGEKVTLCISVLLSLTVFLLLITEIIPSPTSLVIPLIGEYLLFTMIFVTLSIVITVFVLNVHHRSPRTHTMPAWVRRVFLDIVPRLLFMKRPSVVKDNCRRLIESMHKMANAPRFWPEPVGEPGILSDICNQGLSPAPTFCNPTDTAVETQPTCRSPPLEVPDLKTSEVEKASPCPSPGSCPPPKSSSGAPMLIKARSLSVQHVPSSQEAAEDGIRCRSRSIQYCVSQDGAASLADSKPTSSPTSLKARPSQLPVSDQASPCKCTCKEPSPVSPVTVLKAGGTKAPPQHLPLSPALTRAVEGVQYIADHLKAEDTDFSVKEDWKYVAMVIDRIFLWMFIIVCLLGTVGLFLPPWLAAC
T1 sequence (P12390 whole entry): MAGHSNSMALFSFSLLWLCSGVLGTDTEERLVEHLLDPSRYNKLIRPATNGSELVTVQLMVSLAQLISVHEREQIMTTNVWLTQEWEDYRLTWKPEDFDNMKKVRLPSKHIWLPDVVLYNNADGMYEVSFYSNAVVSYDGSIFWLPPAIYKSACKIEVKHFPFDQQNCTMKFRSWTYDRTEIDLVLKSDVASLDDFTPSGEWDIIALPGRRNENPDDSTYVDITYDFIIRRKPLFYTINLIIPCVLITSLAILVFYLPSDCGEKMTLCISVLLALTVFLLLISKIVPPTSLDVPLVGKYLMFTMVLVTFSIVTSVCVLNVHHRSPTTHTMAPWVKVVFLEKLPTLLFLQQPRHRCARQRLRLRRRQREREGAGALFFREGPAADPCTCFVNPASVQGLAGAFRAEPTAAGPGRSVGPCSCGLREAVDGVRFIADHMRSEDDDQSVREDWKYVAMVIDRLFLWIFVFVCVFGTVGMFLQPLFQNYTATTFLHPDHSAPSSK

[2] = species on record: Rattus norvegicus; assay: Selectivity index, ratio of Ki for alpha7 nAChR in rat hippocampus membrane to Ki for alpha4beta2 nAChR in rat cerebral cortex membrane; format: cell membranes
[3] = Selectivity index, ratio of Ki for human alpha3beta4 nAChR in […] cell membrane to Ki for alpha4beta2 nAChR in rat cerebral cortex membrane; format: cell-based
[4] = target: T2, Neuronal acetylcholine receptor; alpha3/beta4 (Homo sapiens, UniProt P30926+P32297); assay: Displacement of [3H]epibatidine from human alpha3beta4 nAChR transfected in […] cell membrane; format: cell membranes
T2 sequence (P30926 whole entry): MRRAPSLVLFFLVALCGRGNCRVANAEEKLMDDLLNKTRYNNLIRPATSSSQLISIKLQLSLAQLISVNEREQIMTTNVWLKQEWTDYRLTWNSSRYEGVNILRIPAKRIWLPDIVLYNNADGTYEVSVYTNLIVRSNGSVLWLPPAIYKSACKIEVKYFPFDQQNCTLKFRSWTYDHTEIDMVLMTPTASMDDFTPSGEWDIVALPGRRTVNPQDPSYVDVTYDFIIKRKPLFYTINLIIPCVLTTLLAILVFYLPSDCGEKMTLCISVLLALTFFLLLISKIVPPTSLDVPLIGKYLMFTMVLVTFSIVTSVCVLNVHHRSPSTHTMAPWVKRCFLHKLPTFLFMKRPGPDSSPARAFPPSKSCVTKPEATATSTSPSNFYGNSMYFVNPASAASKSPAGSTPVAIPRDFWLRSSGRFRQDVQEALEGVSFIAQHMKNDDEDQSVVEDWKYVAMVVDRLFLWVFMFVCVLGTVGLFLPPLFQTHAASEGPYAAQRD
T2 sequence (P32297 whole entry): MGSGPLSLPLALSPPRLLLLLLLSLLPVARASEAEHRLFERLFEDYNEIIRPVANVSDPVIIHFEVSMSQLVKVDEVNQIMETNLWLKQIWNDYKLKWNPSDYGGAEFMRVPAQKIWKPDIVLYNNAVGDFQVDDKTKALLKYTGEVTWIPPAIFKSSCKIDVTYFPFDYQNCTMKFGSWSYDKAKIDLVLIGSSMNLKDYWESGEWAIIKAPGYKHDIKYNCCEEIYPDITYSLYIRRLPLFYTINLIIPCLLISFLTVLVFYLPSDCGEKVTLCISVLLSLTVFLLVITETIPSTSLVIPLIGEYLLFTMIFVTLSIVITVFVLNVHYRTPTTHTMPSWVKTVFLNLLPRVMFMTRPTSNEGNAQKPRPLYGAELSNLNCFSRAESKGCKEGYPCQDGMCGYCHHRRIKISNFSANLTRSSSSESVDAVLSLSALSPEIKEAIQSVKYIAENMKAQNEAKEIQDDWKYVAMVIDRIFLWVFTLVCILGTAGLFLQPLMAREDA

[5] = target: Neuronal acetylcholine receptor subunit alpha-7 (Rattus norvegicus, UniProt Q05941); assay: Displacement of [125I]alpha-bungarotoxin from alpha7nAChR in rat hippocampus membrane; format: cell membranes
Chain of Neuronal acetylcholine receptor subunit alpha-7 (Q05941 whole entry): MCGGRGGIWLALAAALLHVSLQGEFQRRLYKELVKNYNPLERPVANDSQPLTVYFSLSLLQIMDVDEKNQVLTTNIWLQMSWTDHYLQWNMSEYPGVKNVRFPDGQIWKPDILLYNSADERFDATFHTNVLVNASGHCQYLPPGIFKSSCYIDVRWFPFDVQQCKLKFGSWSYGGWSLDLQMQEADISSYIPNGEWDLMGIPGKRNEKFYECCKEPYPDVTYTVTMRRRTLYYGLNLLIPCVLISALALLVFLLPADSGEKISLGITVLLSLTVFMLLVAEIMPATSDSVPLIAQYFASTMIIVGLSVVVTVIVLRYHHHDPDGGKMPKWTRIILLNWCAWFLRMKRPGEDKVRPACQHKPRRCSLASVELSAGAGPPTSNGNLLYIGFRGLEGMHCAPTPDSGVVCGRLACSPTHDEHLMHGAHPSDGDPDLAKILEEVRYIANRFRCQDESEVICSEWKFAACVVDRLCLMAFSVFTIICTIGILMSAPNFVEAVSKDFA

[6] = target: T3, Neuronal acetylcholine receptor; alpha4/beta2 (Homo sapiens, UniProt P17787+P43681); assay: Agonist activity at human alpha4beta2 nAChR expressed in GH4C1 cells assessed as increase in inward channel current measured after 3 to 4 days at -70 mV holding potential by patch clamp assay relative to acetylcholine; format: cell-based
T3 sequence (P17787 whole entry): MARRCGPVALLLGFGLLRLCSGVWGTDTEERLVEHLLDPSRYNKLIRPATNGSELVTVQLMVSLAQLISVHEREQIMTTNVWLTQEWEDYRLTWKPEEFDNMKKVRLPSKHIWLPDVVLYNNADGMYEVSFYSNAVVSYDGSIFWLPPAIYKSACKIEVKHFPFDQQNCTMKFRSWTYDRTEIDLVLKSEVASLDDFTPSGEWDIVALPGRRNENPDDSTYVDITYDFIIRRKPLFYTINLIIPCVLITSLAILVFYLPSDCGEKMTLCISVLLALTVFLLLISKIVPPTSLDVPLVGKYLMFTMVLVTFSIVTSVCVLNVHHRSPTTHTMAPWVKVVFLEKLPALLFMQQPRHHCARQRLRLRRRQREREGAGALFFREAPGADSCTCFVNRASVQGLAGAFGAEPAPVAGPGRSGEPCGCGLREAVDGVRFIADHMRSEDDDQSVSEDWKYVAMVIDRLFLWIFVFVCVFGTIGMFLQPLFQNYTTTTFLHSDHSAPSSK
T3 sequence (P43681 whole entry): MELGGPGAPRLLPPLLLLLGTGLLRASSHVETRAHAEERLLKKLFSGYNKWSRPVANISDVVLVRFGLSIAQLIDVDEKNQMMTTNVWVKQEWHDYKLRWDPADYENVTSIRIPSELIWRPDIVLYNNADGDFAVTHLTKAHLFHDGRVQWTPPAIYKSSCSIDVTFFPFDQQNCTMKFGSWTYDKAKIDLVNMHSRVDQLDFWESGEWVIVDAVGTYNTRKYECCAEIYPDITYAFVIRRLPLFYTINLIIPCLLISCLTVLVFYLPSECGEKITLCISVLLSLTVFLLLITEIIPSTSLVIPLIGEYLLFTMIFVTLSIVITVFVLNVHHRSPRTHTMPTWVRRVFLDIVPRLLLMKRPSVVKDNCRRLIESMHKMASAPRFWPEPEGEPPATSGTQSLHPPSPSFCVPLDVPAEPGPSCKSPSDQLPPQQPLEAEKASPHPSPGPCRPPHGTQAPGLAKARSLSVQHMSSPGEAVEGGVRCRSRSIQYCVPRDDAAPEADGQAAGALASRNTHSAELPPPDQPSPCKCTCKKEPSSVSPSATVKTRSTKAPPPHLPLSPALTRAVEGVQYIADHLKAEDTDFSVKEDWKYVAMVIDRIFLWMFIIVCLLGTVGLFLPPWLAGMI

[7] = target: T3, Neuronal acetylcholine receptor; alpha4/beta2; assay: Agonist activity at human alpha4beta2 nAChR expressed in GH4C1 cells assessed as increase in inward channel current measured after 3 to 4 days at -70 mV holding potential by patch clamp assay; format: cell-based
[8] = target: T2, Neuronal acetylcholine receptor; alpha3/beta4; assay: Agonist activity at human alpha3beta4 nAChR expressed in GH4C1 cells assessed as increase in inward channel current measured after 3 to 4 days at -70 mV holding potential by patch clamp assay; format: cell-based
[9] = target: T2, Neuronal acetylcholine receptor; alpha3/beta4; assay: Agonist activity at human alpha3beta4 nAChR expressed in GH4C1 cells assessed as increase in inward channel current at >1 uM measured after 3 to 4 days at -70 mV holding potential by patch clamp assay; format: cell-based
[10] = target: T2, Neuronal acetylcholine receptor; alpha3/beta4; assay: Agonist activity at human alpha3beta4 nAChR expressed in GH4C1 cells assessed as inward channel current at 0.01 to 100 uM measured after 3 to 4 days at -70 mV holding potential by patch clamp assay; format: cell-based
[11] = target: T1, Neuronal acetylcholine receptor; alpha4/beta2; assay: Displacement of [3H]cytisine from alpha4beta2 nAChR in rat brain cerebral cortex membrane incubated for 75 mins by scintillation counting method; format: cell membranes

Row | SMILES | Ki [1] | Ratio Ki [2] | Ratio Ki [3] | Ki [4] | Ki [5] | Imax [6] | EC50 [7] | EC50 [8] | Activity [9] | Activity [10] | Ki [11]
1 | O=C(Nc1cccc(F)c1)c1cncc(N2CC3CC(C2)N3)c1 | 0.044 nM | 634000 | 636 | 28 nM | 27900 nM | – | – | – | – | – | –
2 | O=C(Nc1ccccc1F)c1cncc(N2CC3CC(C2)N3)c1 | 0.315 nM | 10800 | 324 | 102 nM | 3400 nM | – | – | – | – | – | –
3 | O=C(NCc1ccccc1)c1cncc(N2CC3CC(C2)N3)c1 | 1.8 nM | 594 | 889 | 1600 nM | 1070 nM | – | – | – | – | – | –
4 | CCc1cccc(NC(=O)c2cncc(N3CC4CC(C3)N4)c2)c1 | 1.3 nM | > 38500 | 235 | 306 nM | > 50000 nM | – | – | – | – | – | –
5 | O=C(Nc1ccc(I)cc1)c1cncc(N2CC3CC(C2)N3)c1 | 0.366 nM | 63900 | 281 | 103 nM | 23400 nM | – | – | – | – | – | –
6 | O=C(Nc1ccc2c(c1)OCO2)c1cncc(N2CC3CC(C2)N3)c1 | 0.106 nM | 79200 | 1070 | 113 nM | 8400 nM | – | – | – | – | – | –
7 | COc1cccc(NC(=O)c2cncc(N3CC4CC(C3)N4)c2)c1 | 0.56 nM | > 89300 | 473 | 265 nM | > 50000 nM | 38% | 600 nM | > 10000 nM | Active | – | –
8 | COc1ccc(NC(=O)c2cncc(N3CC4CC(C3)N4)c2)cc1OC | 0.828 nM | 2780 | 623 | 516 nM | 2300 nM | – | – | – | – | – | –
9 | O=C(Nc1cccc(Cl)c1)c1cncc(N2CC3CC(C2)N3)c1 | 0.042 nM | 545000 | 1400 | 59 nM | 22900 nM | 37% | 1000 nM | – | – | inactive | –
10 | Clc1ccc(N2CC3CCC(C2)N3)cn1 | – | – | – | – | – | – | – | – | – | – | 0.95 nM
11 | O=C(Nc1ccc(Cl)cc1)c1cncc(N2CC3CC(C2)N3)c1 | 0.404 nM | 32200 | 304 | 123 nM | 13000 nM | – | – | – | – | – | –
12 | O=C(Nc1ccc(F)cc1F)c1cncc(N2CC3CC(C2)N3)c1 | 0.051 nM | > 980000 | 980 | 50 nM | > 50000 nM | – | – | – | – | – | –
13 | O=C(Nc1ccccc1)c1cncc(N2CC3CC(C2)N3)c1 | 1.1 nM | 2180 | 174 | 192 nM | 2400 nM | – | – | – | – | – | –
14 | COc1cc(NC(=O)c2cncc(N3CC4CC(C3)N4)c2)cc(OC)c1 | 0.985 nM | 43800 | 2030 | 2000 nM | 43100 nM | – | – | – | – | – | –
15 | O=C(c1cncc(N2CC3CC(C2)N3)c1)N1CCc2ccccc2C1 | 0.031 nM | 32300 | 677 | 21 nM | 1000 nM | – | – | – | – | – | –
16 | O=C(Nc1ccc(F)cc1)c1cncc(N2CC3CC(C2)N3)c1 | 0.01 nM | 3.32e+06 | 8100 | 81 nM | 33200 nM | 41% | 520 nM | > 10000 nM | Active | – | –
17 | O=C(c1cncc(N2CC3CC(C2)N3)c1)N1CCCc2ccccc21 | 0.196 nM | > 255000 | 316 | 62 nM | > 50000 nM | – | – | – | – | – | –
